Results from patent US20230293630A1, “Coronavirus T Cell Epitopes and Uses Thereof” (priority 2020, published 2023).
Where two headings read alike, the source gives them in different places.

System: SARS-CoV-2-specific CD4+ T cells (OX40+CD137+) in PBMC
Type: cell-based, human
[1] = CD4+ T cell epitopes identified by AIM assay, share of donors responding
[2] = CD4+ T cell epitopes identified by AIM assay, sum of response per responding donor
[3] = CD4+ T cell epitopes identified by AIM assay, total response
[4] = CD4+ T cell epitopes identified by AIM assay, percent of tested donors responding
[5] = CD4+ T cell epitopes identified by AIM assay, total response summed over donors

SSANNCTFEYVSQPF
Frequency of response (%): 27%
Magnitude by # of responding donors: 1426
Sum of response: 4279

STECSNLLLQYGSFC
Frequency of response (%) [1]: 8%
Magnitude by # of responding donors [2]: 314
Sum of response [3]: 314

SVLHSTQDLFLPFFS
Frequency of response (%) [1]: 15%
Magnitude by # of responding donors [2]: 305
Sum of response [3]: 609

SVLYNSASFSTFKCY
Frequency of response (%) [1]: 8%
Magnitude by # of responding donors [2]: 892
Sum of response [3]: 892

SWFTALTQHGKEDLK
Frequency of response (%) [1]: 23%
Magnitude by # of responding donors [2]: 1088
Sum of response [3]: 3265

TDEMIAQYTSALLAG
Frequency of response (%) [1]: 9%
Magnitude by # of responding donors [2]: 745
Sum of response [3]: 745

TDTGVEHVTFFIYNK
Frequency of response (%) [1]: 7%
Magnitude by # of responding donors [2]: 118
Sum of response [3]: 118

TDYKHWPQIAQFAPS
Frequency of response (%) [1]: 8%
Magnitude by # of responding donors [2]: 180
Sum of response [3]: 180

TFGGPSDSTGSNQNG
Frequency of response (%) [1]: 6%
Magnitude by # of responding donors [2]: 291
Sum of response [3]: 291

TFKCYGVSPTKLNDL
Frequency of response (%) [1]: 8%
Magnitude by # of responding donors [2]: 221
Sum of response [3]: 221

TFTRSTNSRIKASMP
Frequency of response (%) [1]: 8%
Magnitude by # of responding donors [2]: 120
Sum of response [3]: 120

TITSGWTFGAGAALQ
Frequency of response (%) [1]: 9%
Magnitude by # of responding donors [2]: 164
Sum of response [3]: 164

TLRVEAFEYYHTTDP
Frequency of response (%) [1]: 18%
Magnitude by # of responding donors [2]: 318
Sum of response [3]: 635

TNCYDYCIPYNSVTS
Frequency of response (%) [1]: 7%
Magnitude by # of responding donors [2]: 402
Sum of response [3]: 402

TNILLNVPLHGTILT
Frequency of response (%) [1]: 25%
Magnitude by # of responding donors [2]: 543
Sum of response [3]: 1628

TNSRIKASMPTTIAK
Frequency of response (%) [1]: 8%
Magnitude by # of responding donors [2]: 360
Sum of response [3]: 360

TPPIKDFGGFNFSQI
Frequency of response (%) [1]: 8%
Magnitude by # of responding donors [2]: 421
Sum of response [3]: 421

TPSFKKGAKLLHKPI
Frequency of response (%) [1]: 8%
Magnitude by # of responding donors [2]: 103
Sum of response [3]: 103

TQAFGRRGPEQTQGN
Frequency of response (%) [1]: 8%
Magnitude by # of responding donors [2]: 151
Sum of response [3]: 151

TQHQPYVVDDPCPIH
Frequency of response (%) [1]: 36%
Magnitude by # of responding donors [2]: 338
Sum of response [3]: 1352

TQLNRALTGIAVEQD
Frequency of response (%) [4]: 8%
Magnitude by # of responding donors [2]: 260
Sum of response [5]: 260

TRFQTLLALHRSYLT
Frequency of response (%) [4]: 18%
Magnitude by # of responding donors [2]: 2172
Sum of response [5]: 4343

TRRIRGGDGKMKDLS
Frequency of response (%) [1]: 8%
Magnitude by # of responding donors [2]: 151
Sum of response [3]: 151

TRSMWSFNPETNILL
Frequency of response (%) [1]: 17%
Magnitude by # of responding donors [2]: 205
Sum of response [3]: 410

TTVAAFHQECSLQSC
Frequency of response (%) [1]: 18%
Magnitude by # of responding donors [2]: 1008
Sum of response [3]: 2016

TVTLLPAADLDDFSK
Frequency of response (%) [1]: 7%
Magnitude by # of responding donors [2]: 648
Sum of response [3]: 648

VFAQVKQIYKTPPIK
Frequency of response (%) [4]: 8%
Magnitude by # of responding donors [2]: 268
Sum of response [5]: 268

VIRGDEVRQIAPGQT
Frequency of response (%) [1]: 9%
Magnitude by # of responding donors [2]: 180
Sum of response [3]: 180

VLAAVYRINWITGGI
Frequency of response (%) [1]: 42%
Magnitude by # of responding donors [2]: 504
Sum of response [3]: 2519

VNARLRAKHYVYIGD
Frequency of response (%) [1]: 8%
Magnitude by # of responding donors [2]: 116
Sum of response [3]: 116

VNLTTRTQLPPAYTN
Frequency of response (%) [1]: 8%
Magnitude by # of responding donors [2]: 170
Sum of response [3]: 170

VNNSYECDIPIGAGI
Frequency of response (%) [1]: 11%
Magnitude by # of responding donors [2]: 398
Sum of response [3]: 398

VPGLPGTILRTTNGD
Frequency of response (%) [1]: 9%
Magnitude by # of responding donors [2]: 439
Sum of response [3]: 439

VRIIMRLWLCWKCRS
Frequency of response (%) [1]: 14%
Magnitude by # of responding donors [2]: 131
Sum of response [3]: 261

VSSQCVNLTTRTQLP
Frequency of response (%) [1]: 8%
Magnitude by # of responding donors [2]: 274
Sum of response [3]: 274

VTKNSKVQIGEYTFE
Frequency of response (%) [1]: 8%
Magnitude by # of responding donors [2]: 118
Sum of response [3]: 118

VTLADAGFIKQYGDC
Frequency of response (%) [1]: 17%
Magnitude by # of responding donors [2]: 119
Sum of response [3]: 237

VTQNVLYENQKLIAN
Frequency of response (%) [1]: 14%
Magnitude by # of responding donors [2]: 353
Sum of response [3]: 705

VVIKVCEFQFCNDPF
Frequency of response (%) [1]: 9%
Magnitude by # of responding donors [2]: 2088
Sum of response [3]: 2088

VVLSFELLHAPATVC
Frequency of response (%) [1]: 7%
Magnitude by # of responding donors [2]: 317
Sum of response [3]: 317

VWHVNNATNKATYKP
Frequency of response (%) [1]: 8%
Magnitude by # of responding donors [2]: 158
Sum of response [3]: 158

VYYPDKVFRSSVLHS
Frequency of response (%) [1]: 15%
Magnitude by # of responding donors [2]: 198
Sum of response [3]: 395

WDLTAFGLVAEWFLA
Frequency of response (%) [1]: 8%
Magnitude by # of responding donors [2]: 134
Sum of response [3]: 134

WNSNNLDSKVGGNYN
Frequency of response (%) [1]: 9%
Magnitude by # of responding donors [2]: 101
Sum of response [3]: 101

WPQIAQFAPSASAFF
Frequency of response (%) [1]: 33%
Magnitude by # of responding donors [2]: 376
Sum of response [3]: 1503

YADSFVIRGDEVRQI
Frequency of response (%) [1]: 8%
Magnitude by # of responding donors [2]: 160
Sum of response [3]: 160

YCIDGALLTKSSEYK
Frequency of response (%) [1]: 7%
Magnitude by # of responding donors [2]: 119
Sum of response [3]: 119

YDANYFLCWHTNCYD
Frequency of response (%) [1]: 7%
Magnitude by # of responding donors [2]: 209
Sum of response [3]: 209

YFTSDYYQLYSTQLS
Frequency of response (%) [1]: 8%
Magnitude by # of responding donors [2]: 198
Sum of response [3]: 198

YIRVGARKSAPLIEL [SEQ ID NO 256]
Frequency of response (%) [4]: 18%
Magnitude by # of responding donors [2]: 366
Sum of response [5]: 731

YLTFYLTNDVSFLAH
Frequency of response (%) [1]: 17%
Magnitude by # of responding donors [2]: 358
Sum of response [3]: 715

YMSALNHTKKWKYPQ
Frequency of response (%) [1]: 9%
Magnitude by # of responding donors [2]: 109
Sum of response [3]: 109

YPKCDRAMPNMLRIM
Frequency of response (%) [1]: 7%
Magnitude by # of responding donors [2]: 153
Sum of response [3]: 153

YREAACCHLAKALND
Frequency of response (%) [1]: 8%
Magnitude by # of responding donors [2]: 109
Sum of response [3]: 109

YRINWITGGIAIAMA
Frequency of response (%) [1]: 58%
Magnitude by # of responding donors [2]: 345
Sum of response [3]: 2417

YSRYRIGNYKLNTDH
Frequency of response (%) [1]: 15%
Magnitude by # of responding donors [2]: 276
Sum of response [3]: 551
